Experimental data taken from US20090048258A1, “Amide Compound” (priority 2005, published 2009).
Read-outs that look alike come from different tables or passages of the source.

Target: T1, Human DGAT1 (Homo sapiens, UniProt O75907)
T1 construct: my translation of the primer: M-G-DYKDDDD-GDRGSSRRR) (N); made in house; host or cells: Sf9 insect cells (recombinant baculovirus BAC-DGAT1, pFASTBAC1); microsome fraction
T1 sequence (O75907 1-488): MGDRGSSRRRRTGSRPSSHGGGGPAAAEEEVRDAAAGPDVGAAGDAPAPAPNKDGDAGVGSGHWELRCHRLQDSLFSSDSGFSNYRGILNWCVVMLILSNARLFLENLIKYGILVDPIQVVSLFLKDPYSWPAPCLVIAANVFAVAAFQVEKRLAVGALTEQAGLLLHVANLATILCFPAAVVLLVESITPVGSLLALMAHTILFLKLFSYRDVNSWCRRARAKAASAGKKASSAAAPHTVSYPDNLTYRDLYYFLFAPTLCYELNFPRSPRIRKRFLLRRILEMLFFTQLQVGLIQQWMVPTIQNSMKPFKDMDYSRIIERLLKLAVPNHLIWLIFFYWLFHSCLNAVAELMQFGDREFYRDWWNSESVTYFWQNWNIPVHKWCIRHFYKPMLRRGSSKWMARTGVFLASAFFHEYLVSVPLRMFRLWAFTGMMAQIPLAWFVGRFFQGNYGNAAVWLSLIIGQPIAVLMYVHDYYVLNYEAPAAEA
Assay: DGAT inhibitory activity: [14C]-triglyceride synthesis by DGAT1 high expression Sf9 microsome
Format: biochemical
Details: 25 μM [14C]-Oleoyl-CoA, 32° C., 15 min, read-out: DGAT inhibitory activity (according to IC50)
Method in brief: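 DGAT1 was overexpressed from recombinant baculovirus in Sf9 cells, and microsomes from these cells were the enzyme source. Reactions ran in 100 mM Tris-HCl pH 7.5, 250 mM sucrose, 150 mM MgCl2 and 0.01% BSA. [14C]-triglyceride was extracted into chloroform, separated by TLC and quantified by imaging plate, with inhibition calculated against control and blank (no microsome) counts.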

[1] = Table 1, 25 μM dioleoylglycerol
[2] = Table 2, 25 μM dioleoylglycerol

IC50 [1] [nM]	IC50 [2] [nM]	Structure (SMILES)
–	50 to 500	O=C(CCC(=O)c1ccc2c(c1)CCO2)Nc1cc(-c2cccc(OC(F)(F)F)c2)cc(-c2ccccc2)n1 [Example 175, 4-(2,3-dihydro-1-benzofuran-5-yl)-4-oxo-N-{6-phenyl-4-[3-(trifluoromethoxy)phenyl]pyridin-2-yl}butanamide]
–	≤ 10	CCOc1ccc(C(=O)CCC(=O)Nc2cc(-c3ccccc3CO)cc(-c3ccccc3)n2)cc1OCC [Example 147, 4-(3,4-diethoxyphenyl)-N-{4-[2-(hydroxymethyl)phenyl]-6-phenylpyridin-2-yl}-4-oxobutanamide]
–	10 to 50	CCOc1ccc(C(=O)CCC(=O)Nc2cc(-c3ccccc3)c3ccc(CCC(=O)OC(C)(C)C)cc3n2)cc1OCC [Example 87, tert-butyl 3-(2-{[4-(3,4-diethoxyphenyl)-4-oxobutanoyl]amino}-4-phenylquinoline-7-yl)propanoate]
–	50 to 500	Cc1cc(-c2cc(NC(=O)CCC(=O)c3ccc4c(c3)CCO4)nc(-c3ccccc3)c2)cc(C)c1O [Example 183, 4-(2,3-dihydro-1-benzofuran-5-yl)-N-[4-(4-hydroxy-3,5-dimethylphenyl)-6-phenylpyridin-2-yl]-4-oxobutanamide]
–	50 to 500	CCOc1ccc(C(=O)CCC(=O)Nc2cc(-c3ccc(CCC(=O)OC)cc3)cc(-c3ccccc3)n2)cc1OCC [Example 126, methyl 3-[4-(2-{[4-(3,4-diethoxyphenyl)-4-oxobutanoyl]amino}-6-phenylpyridin-4-yl)phenyl]propanoate]
–	50 to 500	CCOc1ccc(C(=O)CCC(=O)Nc2cc(-c3cccc(CCC(=O)OC)c3)cc(-c3ccccc3)n2)cc1OCC [Example 142, methyl 3-[3-(2-{[4-(3,4-diethoxyphenyl)-4-oxobutanoyl]amino}-6-phenylpyridin-4-yl)phenyl]propanoate]
–	50 to 500	CCOc1ccc(C(=O)CCC(=O)Nc2cc(-c3ccccn3)c3ccccc3n2)cc1OCC [Example 89, 4-(3,4-diethoxyphenyl)-4-oxo-N-[4-(pyridin-2-yl)quinolin-2-yl]butanamide]
–	500 to 10000	CCOc1ccc(C(=O)CCC(=O)Nc2cc(-c3ccc(CN4CCOCC4)cc3)cc(-c3ccccc3)n2)cc1OCC [Example 130, 4-(3,4-diethoxyphenyl)-N-{4-[4-(morpholin-4-ylmethyl)phenyl]-6-phenylpyridin-2-yl}-4-oxobutanamide]
–	50 to 500	CCOc1ccc(C(=O)CCC(=O)Nc2cc(-c3ccccc3)c(Cc3ccccc3)s2)cc1Br [Example 98, N-(5-benzyl-4-phenyl-2-thienyl)-4-(3-bromo-4-ethoxyphenyl)-4-oxobutanamide]
–	10 to 50	O=C(CCC(=O)c1ccc2c(c1)CCO2)Nc1cc(-c2ccc3[nH]ccc3c2)cc(-c2ccccc2)n1 [Example 154, 4-(2,3-dihydro-1-benzofuran-5-yl)-N-[4-(1H-indol-5-yl)-6-phenylpyridin-2-yl]-4-oxobutanamide]
–	500 to 10000	CCOc1ccc(C(=O)CCC(=O)Nc2cc(-c3ccc(N4CCOCC4)cc3)cc(-c3ccccc3)n2)cc1OCC [Example 129, 4-(3,4-diethoxyphenyl)-N-[4-(4-(morpholin-4-yl)phenyl)-6-phenylpyridin-2-yl]-4-oxobutanamide]
–	50 to 500	CCOc1ccc(C(=O)CCC(=O)Nc2cc(-c3ccc(C#N)cc3)cc(-c3ccccc3)n2)cc1OCC [Example 122, N-[4-(4-cyanophenyl)-6-phenylpyridin-2-yl]-4-(3,4-diethoxyphenyl)-4-oxobutanamide]
–	50 to 500	CCOc1ccc(C(=O)CCC(=O)Nc2cc(-c3ccc(OCCCN(C)C)cc3)c3ccccc3n2)cc1OCC [Example 93, 4-(3,4-diethoxyphenyl)-N-(4-{4-[3-(dimethylamino)propoxy]phenyl}quinolin-2-yl)-4-oxobutanamide]
–	500 to 10000	O=C(O)CCc1cccc(-c2cc(NC(=O)CCC(=O)c3ccc4c(c3)CCO4)nc(-c3ccccc3)c2)c1 [Example 172, 3-[3-(2-{[4-(2,3-dihydro-1-benzofuran-5-yl)-4-oxobutanoyl]amino}-6-phenylpyridin-4-yl)phenyl]propanoic acid]
–	50 to 500	O=C(CCC(=O)c1ccc2c(c1)CCO2)Nc1cc(-c2ccccc2CO)cc(-c2ccccc2)n1 [Example 179, 4-(2,3-dihydro-1-benzofuran-5-yl)-N-{4-[2-(hydroxymethyl)phenyl]-6-phenylpyridin-2-yl}-4-oxobutanamide]
–	≤ 10	CCOc1ccc(C(=O)CCC(=O)Nc2cc(-c3ccccc3C#N)cc(-c3ccccc3)n2)cc1OCC [Example 144, N-[4-(2-cyanophenyl)-6-phenylpyridin-2-yl]-4-(3,4-diethoxyphenyl)-4-oxobutanamide]
–	10 to 50	CCc1ccc(C(=O)CCC(=O)Nc2nc(-c3ccccc3)c(Cc3ccccc3)s2)s1 [Example 72, N-(5-benzyl-4-phenyl-1,3-thiazol-2-yl)-4-(5-ethyl-2-thienyl)-4-oxobutanamide]
–	50 to 500	CCOc1ccc(C(=O)CCC(=O)Nc2cc(-c3ccc(OCCN)cc3)c3ccccc3n2)cc1OCC [Example 94, N-{4-[4-(2-aminoethoxy)phenyl]quinolin-2-yl}-4-(3,4-diethoxyphenyl)-4-oxobutanamide]

The remaining lines, values behind:

Structure (SMILES)	IC50 [1] [nM]	IC50 [2] [nM]
CCOc1ccc(C(=O)CCC(=O)Nc2ccc(CCC(=O)O)c(-c3ccccc3)c2)cc1OCC [Example 10, 3-(5-{[4-(3,4-diethoxyphenyl)-4-oxobutanoyl]amino}biphenyl-2-yl)propanoic acid]	500 to 10000	–
CCOc1ccc(C(=O)NCCNC(=O)c2cc(-c3ccccc3)n(-c3ccc(OC)cc3)c2C)cc1 [Example 64, N-{2-[(4-ethoxybenzoyl)amino]ethyl}-1-(4-methoxyphenyl)-2-methyl-5-phenyl-1H-pyrrole-3-carboxamide]	50 to 500	–
CCOc1ccc(C(=O)CCC(=O)Nc2cc(-c3ccc(OCOC)cc3)c3ccccc3n2)cc1OCC [Example 15, 4-(3,4-diethoxyphenyl)-N-{4-[4-(methoxymethoxy)phenyl]quinolin-2-yl}-4-oxobutanamide]	50 to 500	–
CCOc1ccc(C(=O)CCC(=O)Nc2cc(-c3ccc(OCC(=O)O)cc3)c3ccccc3n2)cc1OCC [Example 23, [4-(2-{[4-(3,4-diethoxyphenyl)-4-oxobutanoyl]amino}quinolin-4-yl)phenoxy]acetic acid]	500 to 10000	–
CCOc1cccc(C(=O)CCC(=O)Nc2cc(-c3ccccc3)c(Cc3ccccc3)s2)c1 [Example 45, N-(5-benzyl-4-phenyl-2-thienyl)-4-(3-ethoxyphenyl)-4-oxobutanamide]	50 to 500	–
O=C(CCC(=O)c1ccc(OC(F)(F)F)cc1)Nc1nc(-c2ccccc2)c(Cc2ccccc2)s1 [Example 28, N-(5-benzyl-4-phenyl-1,3-thiazol-2-yl)-4-oxo-4-[4-(trifluoromethoxy)phenyl]butanamide]	50 to 500	–
COc1ccc(C(=O)CCC(=O)Nc2nc(-c3ccccc3)c(Cc3ccccc3)s2)cc1OC [Example 71, N-(5-benzyl-4-phenyl-1,3-thiazol-2-yl)-4-(3,4-dimethoxyphenyl)-4-oxobutanamide]	–	≤ 10
CCOc1ccc(C(=O)CCC(=O)Nc2cc(-c3ccc(O)cc3)c3ccccc3n2)cc1OCC [Example 22, 4-(3,4-diethoxyphenyl)-N-[4-(4-hydroxyphenyl)quinolin-2-yl]-4-oxobutanamide]	≤ 10	–
CCOc1cccc(C(=O)CCC(=O)Nc2nc(-c3ccccc3)c(Cc3ccccc3)s2)c1 [Example 5, N-(5-benzyl-4-phenyl-1,3-thiazol-2-yl)-4-(3-ethoxyphenyl)-4-oxobutanamide]	≤ 10	–
CCOc1ccc(C(=O)CCC(=O)Nc2cc(-c3ccccc3)cc(-c3ccccc3)n2)cc1OCC [Example 11, 4-(3,4-diethoxyphenyl)-N-(4,6-diphenylpyridin-2-yl)-4-oxobutanamide]	10 to 50	–
CCOc1ccc(C(=O)NCCNC(=O)c2cc(-c3ccccc3)n(Cc3ccccc3)c2C)cc1 [Example 63, 1-benzyl-N-{2-[(4-ethoxybenzoyl)amino]ethyl}-2-methyl-5-phenyl-1H-pyrrole-3-carboxamide]	50 to 500	–
CCOC(=O)/C=C/c1ccc(Cc2sc(NC(=O)CCC(=O)c3ccc(OCC)c(OCC)c3)cc2-c2ccccc2)cc1 [Example 51, ethyl (2E)-3-{4-[(5-{[4-(3,4-diethoxyphenyl)-4-oxobutanoyl]amino}-3-phenyl-2-thienyl)methyl]phenyl}acrylate]	50 to 500	–
CCOc1ccc(C(=O)CCC(=O)Nc2cc(OCCC(C)C)cc(-c3ccccc3)n2)cc1OCC [Example 41, 4-(3,4-diethoxyphenyl)-N-(4-(3-methylbutoxy)-6-phenylpyridin-2-yl)-4-oxobutanamide]	50 to 500	–
CCOc1ccc(C(=O)CCC(=O)Nc2ncc(-c3ccccc3)cc2-c2ccccc2)cc1OCC [Example 13, 4-(3,4-diethoxyphenyl)-N-(3,5-diphenylpyridin-2-yl)-4-oxobutanamide]	50 to 500	–
O=C(O)Cc1ccc(C(=O)CCC(=O)Nc2nc(-c3ccccc3)c(Cc3ccccc3)s2)cc1 [Example 35]	500 to 10000	–
